Reference: patent publication US20130131126A1, “DERIVATIVES OF 1,4-DIHYDROPYRIDINE POSSESSING ANTIVIRAL EFFICACY” (JSC Grindeks, priority 2010, published 2013)

Tested on: influenza virus (H3N2)
Experiment: Antiviral efficacy against influenza virus on MDCK cell line in vitro
Type: cell-based
Details: MDCK cells infected with influenza virus (H3N2); compound present from 1 hour after infection until end of culture; over a wide concentration range

Row | SMILES | antiviral efficacy against influenza
1 | COC(=O)C1=C(C)NC(C)=C(C(=O)OCC(=O)[O-])C1.[Na+] [sodium 2,6-dimethyl-3-methoxycarbonyl-1,4-dihydropyridine-5-carbonyloxyacetate] | effective against influenza
2 | COC(=O)C1C(C(=O)OCC(=O)[O-])=C(C)NC(C)=C1C(=O)OCC(=O)[O-].[Na+].[Na+] [disodium 2,6-dimethyl-1,4-dihydropyridine-4-methoxycarbonyl-3,5-bis-(carbonyloxyacetate)] | effective against influenza
3 | CCOC(=O)C1=C(C)NC(C)=C(C(=O)OCC(=O)[O-])C1.[Na+] [sodium 2,6-dimethyl-3-ethoxycarbonyl-1,4-dihydropyridine-5-carbonyloxyacetate] | effective against influenza
